According to ChEMBL document CHEMBL4184097, “Design, synthesis, and evaluation of novel inhibitors for wild-type human serine racemase” (Bioorg Med Chem Lett, 2018):

Target: T1, Serine racemase (Homo sapiens) (UniProt Q9GZT4)
T1 sequence (whole entry): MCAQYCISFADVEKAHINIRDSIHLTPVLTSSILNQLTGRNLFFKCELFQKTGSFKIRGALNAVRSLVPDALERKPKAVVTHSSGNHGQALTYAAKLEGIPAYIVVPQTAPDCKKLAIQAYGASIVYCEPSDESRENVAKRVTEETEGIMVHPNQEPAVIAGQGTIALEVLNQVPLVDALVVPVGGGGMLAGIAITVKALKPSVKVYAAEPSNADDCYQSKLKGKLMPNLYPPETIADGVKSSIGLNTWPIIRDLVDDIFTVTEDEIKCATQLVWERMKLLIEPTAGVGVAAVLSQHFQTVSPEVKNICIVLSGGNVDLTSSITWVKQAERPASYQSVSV
Assay: Inhibition of wild-type serine racemase (unknown origin) assessed as residual activity by measuring D-serine level at 1 mM using […] as substrate and PLP as co-factor pretreated for 30 mins followed by substrate and co-factor addition measured after 30 mins relative to control

| Structure (SMILES) | Activity [%] |
| --- | --- |
| CC(=O)Nc1ccc(NC(=O)C(C)NC(=O)CCSc2ccccc2Cl)cc1 (centres undefined) | 52 |
| CC(=O)Nc1ccc(NC(=O)COC(=O)CCOc2ccccc2F)cc1 | 88 |
| CC(OC(=O)CCSc1ccccc1Cl)C(=O)Nc1ccccc1 (centres undefined) | 91 |
| CC(=O)Nc1ccc(NC(=O)COC(=O)CCSc2ccccc2Cl)cc1 | 84 |
| CC(=O)Nc1ccc(NC(=O)COC(=O)CCSc2ccccc2)cc1 | 72 |
| COc1ccccc1CCCC(=O)CCC(=O)Nc1ccc(NC(C)=O)cc1 | 100 |
| CCc1ccccc1NC(=O)C(C)OC(=O)CCSc1ccccc1Cl (centres undefined) | 91 |
| COc1cccc(SCCC(=O)OCC(=O)Nc2ccc(NC(C)=O)cc2)c1 | 61 |
| COc1ccccc1CCCC(=O)OCC(=O)Nc1ccc(NC(C)=O)cc1 | 76 |
| COc1ccc(SCCC(=O)OCC(=O)Nc2ccc(NC(C)=O)cc2)cc1 | 65 |

Results, then the compound that gave them:

| Activity [%] | Structure (SMILES) |
| --- | --- |
| 55 | CC(=O)Nc1ccc(NC(=O)COC(=O)CCSc2ccccc2F)cc1 |
| 100 | COc1ccccc1SCCC(=O)NCC(=O)Nc1ccc(NC(C)=O)cc1 |
| 100 | CC(=O)Nc1ccc(NC(=O)COC(=O)CCSc2cccc(Cl)c2)cc1 |
| 92 | COc1ccccc1SCCC(=O)NC(C)C(=O)Nc1ccc(NC(C)=O)cc1 (centres undefined) |
| 36 | COc1ccccc1SCCC(=O)OCC(=O)Nc1ccc(NC(C)=O)cc1 |
| 56 | CC(=O)c1ccc(NC(=O)NNC(=O)Cc2ccc(Cl)c(Cl)c2)cc1 |
| 49 | CC(=O)Nc1ccc(NC(=O)C(C)OC(=O)CCSc2ccccc2Cl)cc1 (centres undefined) |
| 100 | CC(=O)Nc1ccc(NC(=O)CNC(=O)CCSc2ccccc2Cl)cc1 |

Target: T2, Serine racemase (Homo sapiens, UniProt Q9GZT4)
T2 sequence (Q9GZT4 whole entry): T1 sequence (whole entry)
Assay: Inhibition of wild-type serine racemase (unknown origin) assessed as residual activity by measuring D-serine level using […] as substrate and PLP as co-factor pretreated for 30 mins followed by substrate and co-factor addition measured after 30 mins

| IC50 [µM] | Structure (SMILES) |
| --- | --- |
| 836 | COc1ccccc1SCCC(=O)OCC(=O)Nc1ccc(NC(C)=O)cc1 |
